Results from article PMC4714869 (Steroids, 2015).
“Also recorded” adds a separate entry of the source.

Key:
[1] = tested on: PgR and GREB1 gene expression in MCF-7 cells; assay: Estrogen-responsive gene expression; format: cell-based; settings: for PgR and GREB1 RNA level (gene stimulation): MCF-7, 10^−8 M E2, 10^−6 M Liq or Iso-Liq, 3×10^−6 M L1–L7, 24 h
[2] = tested on: proteinase inhibitor 9 (PI9) expression in HepG2 + ERα cells; assay: PI9 gene expression in HepG2 cells stably expressing ERα; settings: 10^−8 M EE2; 3×10^−6 M Liq, Iso-Liq, L1–L7; 24 h
[3] = tested on: Ki67 gene expression in MCF-7 cells; assay: Ki67 gene expression in MCF-7 cells by qPCR; settings: for suppression of E2-elicited increase in Ki67 mRNA: 3×10^−6 M component with 10^−9 M E2, 24 h; for Ki67 RNA expression (stimulation): 10^−8 M E2, 10^−6 M Liq or Iso-Liq, 3×10^−6 M L1–L7, 24 h
[4] = tested on: MCF-7 cells; assay: Proliferation of MCF-7 cells; format: cell-based; settings: 6 days; two highest concentrations 10^−6 and 3×10^−6 M
[5] = tested on: E2-stimulated PgR and GREB1 gene expression in MCF-7 cells; assay: Inhibition of E2-stimulated PgR and GREB1 gene expression in MCF-7 cells; settings: 3×10^−6 M component with 10^−9 M E2, 24 h
[6] = target: human ERβ (Homo sapiens, UniProt Q92731); settings: for RBA (mean ± SD) ERβ: RBA of estradiol set to 100%, 2 nM [3H]-estradiol, 18–24 h at 0 °C
Sequence of human ERβ (Q92731 whole entry): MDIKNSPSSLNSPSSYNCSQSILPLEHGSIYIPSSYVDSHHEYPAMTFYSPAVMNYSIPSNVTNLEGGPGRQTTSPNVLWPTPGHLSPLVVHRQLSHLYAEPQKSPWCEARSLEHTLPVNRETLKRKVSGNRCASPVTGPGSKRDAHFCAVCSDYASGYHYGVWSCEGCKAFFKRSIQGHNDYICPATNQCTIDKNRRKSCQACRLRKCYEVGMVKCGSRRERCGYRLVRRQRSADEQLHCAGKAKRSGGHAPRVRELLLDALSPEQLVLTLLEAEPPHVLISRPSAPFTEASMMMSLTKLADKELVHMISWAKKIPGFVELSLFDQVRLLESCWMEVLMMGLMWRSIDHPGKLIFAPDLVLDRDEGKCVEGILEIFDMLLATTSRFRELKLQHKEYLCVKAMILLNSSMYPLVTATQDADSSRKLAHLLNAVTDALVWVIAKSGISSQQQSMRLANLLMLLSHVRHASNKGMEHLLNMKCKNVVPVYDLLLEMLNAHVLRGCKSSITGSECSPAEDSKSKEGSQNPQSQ

[7] = target: T1, human ERα (Homo sapiens, UniProt P03372); assay: Competitive radiometric binding assay with [3H]-estradiol tracer, ERα; settings: RBA of estradiol set to 100%; 2 nM [3H]-estradiol, 18–24 h at 0 °C
T1 sequence (P03372 1-595): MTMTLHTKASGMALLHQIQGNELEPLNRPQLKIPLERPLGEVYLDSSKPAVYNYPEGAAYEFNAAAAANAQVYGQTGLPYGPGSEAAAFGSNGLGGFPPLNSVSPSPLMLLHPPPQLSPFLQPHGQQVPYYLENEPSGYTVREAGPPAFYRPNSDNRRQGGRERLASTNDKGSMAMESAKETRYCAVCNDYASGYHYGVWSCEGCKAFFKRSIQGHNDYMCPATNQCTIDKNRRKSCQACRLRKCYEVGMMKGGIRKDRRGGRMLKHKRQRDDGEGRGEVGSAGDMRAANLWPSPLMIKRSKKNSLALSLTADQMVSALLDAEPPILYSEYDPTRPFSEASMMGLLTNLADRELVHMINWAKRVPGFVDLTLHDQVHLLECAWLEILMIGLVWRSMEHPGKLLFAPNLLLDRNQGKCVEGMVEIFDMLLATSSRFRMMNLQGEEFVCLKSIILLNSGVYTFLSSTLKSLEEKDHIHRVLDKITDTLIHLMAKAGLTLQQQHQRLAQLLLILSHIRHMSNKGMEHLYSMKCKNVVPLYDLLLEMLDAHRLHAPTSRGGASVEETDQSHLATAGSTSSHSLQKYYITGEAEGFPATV

SMILES	ERβ/ERα ratio of RBA [6]	RBA (mean ± SD) ERβ [6] [%]	RBA (mean ± SD) ERα [7] [%]	preference for ERβ over ERα ([6]; from RBA values)	PgR and GREB1 RNA level (gene stimulation) [1]	PI9 expression in HepG2 + ERα cells [2]	effect of antiestrogen cotreatment on increases in Ki67 RNA expression ([3]; 10^−6 M ICI 182,780, 24 h)	stimulation of MCF-7 cell proliferation [4]	suppression of E2-elicited increase in Ki67 mRNA [3]	Ki67 RNA expression (stimulation) [3]	block of E2-stimulated GREB1 expression [5]	block of E2-stimulated PgR expression [5]	potency in stimulating estrogen-regulated genes, fold less than E2 ([1]; efficacy nearly equivalent to E2)
C[C@]12CC[C@@H]3c4ccc(O)cc4CC[C@H]3[C@@H]1CC[C@@H]2O [E2, estradiol, reference compound]					markedly increased								
C#C[C@]1(O)CC[C@H]2[C@@H]3CCc4cc(O)ccc4[C@H]3CC[C@@]21C [EE2, ethinyl estradiol]						stimulated expression							
C[C@]12CC[C@@H]3c4ccc(O)cc4C[C@@H](CCCCCCCCC[S+]([O-])CCCC(F)(F)C(F)(F)F)[C@H]3[C@@H]1CC[C@@H]2O (some centres unmarked) [ICI 182,780, reference compound]							eliminated						
O=C(/C=C/c1ccc(O)cc1)c1ccc(O)cc1O [Iso-Liq, Iso-liquiritigenin, reference compound]					markedly increased	stimulated expression		stimulated cell proliferation quite strongly					
O=C1C[C@@H](c2ccc(O)cc2)Oc2cc(O)ccc21 [Liq, Liquiritigenin, reference compound]			<0.001		markedly increased	stimulated expression		stimulated cell proliferation quite strongly					

The next lines start with results.

ERβ/ERα ratio of RBA [6]	RBA (mean ± SD) ERβ [6] [%]	RBA (mean ± SD) ERα [7] [%]	preference for ERβ over ERα ([6]; from RBA values)	SMILES	PgR and GREB1 RNA level (gene stimulation) [1]	PI9 expression in HepG2 + ERα cells [2]	effect of antiestrogen cotreatment on increases in Ki67 RNA expression ([3]; 10^−6 M ICI 182,780, 24 h)	stimulation of MCF-7 cell proliferation [4]	suppression of E2-elicited increase in Ki67 mRNA [3]	Ki67 RNA expression (stimulation) [3]	block of E2-stimulated GREB1 expression [5]	block of E2-stimulated PgR expression [5]	potency in stimulating estrogen-regulated genes, fold less than E2 ([1]; efficacy nearly equivalent to E2)
1.2	0.091 ± 0.001	0.075 ± 0.015		CC1(C)C=Cc2c(ccc3c2OC[C@@H](c2ccc(O)cc2O)C3)O1 [L1, Glabridin]	little or no change in gene expression; also recorded: did not stimulate expression of PgR or GREB1			inactive in eliciting elevation of cell proliferation	not effective in suppressing	did not stimulate Ki67 gene expression	only partially	almost fully	
2.7	0.027 ± 0.004	0.010 ± 0.004		COc1ccc(-c2coc3cc(O)ccc3c2=O)cc1O [L2, Calycosin]	effective in increasing PgR and GREB1 expression								
0.6	0.039 ± 0.011	0.062 ± 0.008		COc1ccc(C2COc3cc(O)ccc3C2)c(O)c1 (centres unmarked) [L4, Vestitol]	effective in increasing PgR and GREB1 expression			stimulated cell proliferation quite strongly					ca. 10,000 fold
11.1	0.111 ± 0.004	0.010 ± 0.001	greater than 10 fold	COc1c(CC=C(C)C)c(O)cc2c1C[C@H](c1ccc(O)cc1O)CO2 [L5, Glyasperin C]	little or no change in gene expression; also recorded: did not stimulate expression of PgR or GREB1			inactive in eliciting elevation of cell proliferation	not effective in suppressing	did not stimulate Ki67 gene expression	only partially	almost fully	
2.4	0.040 ± 0.001	0.017 ± 0.001		COc1c(CC=C(C)C)c(O)cc2oc(=O)c(-c3ccc(O)cc3O)cc12 [L6, Glycycoumarin]	effective in increasing PgR and GREB1 expression					all compounds except for L1, L5, L6 and L7 increased Ki67 RNA expression			
2.4	0.019 ± 0.004	0.008 ± 0.001		COc1c(CC=C(C)C)c(O)cc(O)c1-c1coc2cc(O)ccc2c1=O [L7, Glicoricone]	little or no change in gene expression; also recorded: did not stimulate expression of PgR or GREB1			inactive in eliciting elevation of cell proliferation	partially suppressed	did not stimulate Ki67 expression	only partially; also recorded: most effective antagonist of GREB1 stimulation by E2	almost fully	
